pIC50: −log10 of the molar value. Calls of active or inactive are those of the source. The calls are words filed in the database; no cut-off is given here.
Experiments:
Leishmania amazonensis [1] = test: Antileishmanial activity against promastigote form of Leishmania amazonensis MHOM/Br/79/Maria after 48 hrs by resazurin fluorescence assay; type: functional, organism-based; conditions: for pIC50: Leishmania amazonensis, MHOM/Br/79/Maria, 48 h, read-out: IC50
Leishmania braziliensis = test: Antileishmanial activity against promastigote form of Leishmania braziliensis 2903 after 48 hrs by resazurin fluorescence assay; type: functional, organism-based; conditions: Leishmania braziliensis, 2903, 48 h
[2] = Selectivity index, ratio of CC50 for mouse J774 cells to IC50 for promastigote form of Leishmania infantum MCAN/ES/96/BCN150; type: functional
[3] = Selectivity index, ratio of CC50 for mouse J774 cells to IC50 for amastigote form of Leishmania amazonensis MHOM/Br/79/Maria infected in mouse J774 cells; type: functional
[4] = Selectivity index, ratio of CC50 for mouse J774 cells to IC50 for promastigote form of Leishmania amazonensis MHOM/Br/79/Maria; type: functional
[5] = Selectivity index, ratio of CC50 for mouse J774 cells to IC50 for promastigote form of Leishmania guyanensis 141/93; type: functional
[6] = Selectivity index, ratio of CC50 for mouse J774 cells to IC50 for promastigote form of Leishmania braziliensis 2903; type: functional
Leishmania infantum [7] = test: Antileishmanial activity against promastigote form of Leishmania infantum MCAN/ES/96/BCN150 after 48 hrs by resazurin fluorescence assay; type: functional, organism-based; conditions: for pIC50: Leishmania infantum, MCAN/ES/96/BCN150, 48 h, read-out: IC50
[8] = Cytotoxicity against mouse J774 cells assessed as reduction in cell viability after 24 hrs by resazurin fluorescence assay; type: cell-based
[9] = Selectivity index, ratio of CC50 for mouse J774 cells to IC50 for amastigote form of Leishmania infantum MCAN/ES/96/BCN150 infected in mouse J774 cells; type: functional
Leishmania guyanensis = test: Antileishmanial activity against promastigote form of Leishmania guyanensis 141/93 after 48 hrs by resazurin fluorescence assay; type: functional, organism-based; conditions: 141/93, 48 h
Leishmania infantum [10] = test: Antileishmancidal activity against amastigote form of Leishmania infantum MCAN/ES/96/BCN150 infected in BALB/c mouse assessed as reduction of parasite burden in spleen at 5 mg/kg, ip qd for 5 consecutive days starting 21 days post infection measured after 7 days relative to untreated control; type: functional; design: scale not given: the % may be the effect or the level left; conditions: route intraperitoneal
Calf thymus DNA [11] = test: Binding affinity to calf thymus DNA assessed as hypochromic effect at DNA-compound ratio of 3 by UV-visible titration method; type: nucleic-acid assay; conditions: Bos taurus
Bos taurus = species on record: Bos taurus; test: Effect on calf thymus DNA viscosity at 1 to 10 uM
Leishmania infantum [12] = test: Antileishmancidal activity against amastigote form of Leishmania infantum MCAN/ES/96/BCN150 infected in BALB/c mouse assessed as reduction of parasite burden in liver at 5 mg/kg, ip qd for 5 consecutive days starting 21 days post infection measured after 7 days relative to untreated control; type: functional
Albumin [13] = molecular target: T1, Albumin (Bos taurus, UniProt P02769); test: Binding affinity to bovine serum albumin after 10 mins by fluorimetric titration method; type: ADME; conditions: cattle, isolated protein
T1 sequence (P02769 whole entry): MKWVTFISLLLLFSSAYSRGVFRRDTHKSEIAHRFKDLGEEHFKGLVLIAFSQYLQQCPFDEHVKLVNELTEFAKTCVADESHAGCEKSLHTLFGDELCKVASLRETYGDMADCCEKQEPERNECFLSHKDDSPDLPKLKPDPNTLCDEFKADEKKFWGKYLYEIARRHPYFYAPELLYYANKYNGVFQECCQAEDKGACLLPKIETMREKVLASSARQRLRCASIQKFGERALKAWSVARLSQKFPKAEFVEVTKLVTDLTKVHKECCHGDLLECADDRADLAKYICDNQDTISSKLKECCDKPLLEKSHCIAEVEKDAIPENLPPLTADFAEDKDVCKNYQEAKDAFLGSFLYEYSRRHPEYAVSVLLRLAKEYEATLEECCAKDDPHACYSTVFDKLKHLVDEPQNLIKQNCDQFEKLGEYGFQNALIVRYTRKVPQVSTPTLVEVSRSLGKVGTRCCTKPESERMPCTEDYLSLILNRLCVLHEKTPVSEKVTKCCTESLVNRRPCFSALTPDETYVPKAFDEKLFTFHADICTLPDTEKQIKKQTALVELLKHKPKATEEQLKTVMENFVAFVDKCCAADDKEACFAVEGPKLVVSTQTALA

Leishmania infantum [14] = test: Antileishmanial activity against amastigote form of Leishmania infantum MCAN/ES/96/BCN150 infected in mouse J774 cells assessed as reduction in intracellular amastigotes compound treated for 48 hrs followed by 3 days incubation for transformation by resazurin fluorescence assay; type: functional, organism-based; conditions: MCAN/ES/96/BCN150, J774
Albumin [15] = molecular target: T1, Albumin; test: Competitive binding affinity to bovine serum albumin site 1 assessed as quenching constant after 10 mins by fluorimetric titration method in presence of warfarin; type: ADME; conditions: cattle, isolated protein
Albumin [16] = molecular target: T1, Albumin; test: Binding affinity to bovine serum albumin assessed as quenching constant after 10 mins by Stern-Volmer plot method; type: ADME; conditions: cattle, isolated protein
Calf thymus DNA [17] = test: Binding affinity to calf thymus DNA by UV-visible titration method; type: nucleic-acid assay; conditions: Bos taurus
Albumin [18] = molecular target: T1, Albumin; test: Competitive binding affinity to bovine serum albumin site 2 assessed as quenching constant after 10 mins by fluorimetric titration method in presence of ibuprofen; type: ADME; conditions: cattle, isolated protein
Leishmania amazonensis [19] = test: Antileishmanial activity against amastigote form of Leishmania amazonensis MHOM/Br/79/Maria infected in mouse J774 cells assessed as reduction in intracellular amastigotes compound treated for 48 hrs followed by 3 days incubation for transformation by resazurin fluorescence assay; type: functional, organism-based
Mus musculus [20] = test: Toxicity in BALB/c mouse assessed as gross weight loss at 5 mg/kg, ip qd for 5 consecutive days; type: organism-based; design: dose 5 mg/kg, route intraperitoneal; conditions: in vivo
Mus musculus [21] = test: Toxicity in BALB/c mouse assessed as hair loss at 5 mg/kg, ip qd for 5 consecutive days; type: organism-based; design: dose 5 mg/kg, route intraperitoneal; conditions: in vivo
Calf thymus DNA [22] = test: Binding affinity to calf thymus DNA at 10 uM by UV-visible titration method; type: nucleic-acid assay; conditions: Bos taurus

**Q.** With CCCCCCCCCCCCCCCCOP(=O)([O-])OCC[N+](C)(C)C [MILTEFOSINE] as the compound, how does the pIC50 (Leishmania amazonensis [1]) read?
**A.** 4.55

**Q.** And the pIC50 (Leishmania braziliensis)?
**A.** 4.57

**Q.** What about the “Ratio CC50/IC50” value [2] of the same compound?
**A.** 7.7

**Q.** And the “Ratio CC50/IC50” value [3]?
**A.** 6.5

**Q.** What about the “Ratio CC50/IC50” value [4] of the same compound?
**A.** 5.8

**Q.** And the “Ratio CC50/IC50” value [5]?
**A.** 3.1

**Q.** What about the “Ratio CC50/IC50” value [6] of the same compound?
**A.** 6

**Q.** And the pIC50 (Leishmania infantum [7])?
**A.** 4.67

**Q.** What about the CC50 at 24 h [8] of the same compound?
**A.** 164 µM

**Q.** And the “Ratio CC50/IC50” value [9]?
**A.** 5.7

**Q.** What about the pIC50 (Leishmania guyanensis) of the same compound?
**A.** 4.27

**Q.** With O=C(c1cccc(C(=O)c2cccc(-c3nnn4ccccc34)n2)n1)c1cccc(-c2nnn3ccccc23)n1 as the compound, how does the pIC50 (Leishmania amazonensis [1]) read?
**A.** 4.27

**Q.** And the pIC50 (Leishmania braziliensis)?
**A.** 4.23

**Q.** And the Activity (Leishmania infantum [10])?
**A.** 78.2%

**Q.** And the “Ratio CC50/IC50” value [2]?
**A.** >3

**Q.** And the “Ratio CC50/IC50” value [4]?
**A.** >5.6

**Q.** And the Activity (Calf thymus DNA [11])?
**A.** 60%

**Q.** And the Activity (Bos taurus)?
**A.** inactive

**Q.** And the “Ratio CC50/IC50” value [5]?
**A.** >10.4

**Q.** And the Activity (Leishmania infantum [12])?
**A.** inactive

**Q.** And the Kb (Albumin [13])?
**A.** 1.9 ×10⁴ /M

**Q.** And the Kq (Albumin [13])?
**A.** 2.4 ×10¹³ /M/sec

**Q.** And the pIC50 (Leishmania infantum [14])?
**A.** 4.42

**Q.** And the Kb (Albumin [15])?
**A.** 8.2 ×10³ /M

**Q.** What about the “Ratio CC50/IC50” value [6] of the same compound?
**A.** >5.1

**Q.** What about the pIC50 (Leishmania infantum [7]) of the same compound?
**A.** 4.00

**Q.** And the CC50 at 24 h [8]?
**A.** ≥ 300 µM

**Q.** And the “Ratio CC50/IC50” value [9]?
**A.** >7.9

**Q.** And the KSV (Albumin [16])?
**A.** 2.4 ×10⁵ /M

**Q.** What about the Kb (Calf thymus DNA [17]) of the same compound?
**A.** 3.26 ×10⁵ /M

**Q.** And the Kb (Albumin [18])?
**A.** 3.8 ×10³ /M

**Q.** What about the IC50 (Leishmania amazonensis [19]; j774) of the same compound?
**A.** Not Active

**Q.** What about the pIC50 (Leishmania guyanensis) of the same compound?
**A.** 4.54

**Q.** With O=C(c1cccc(-c2nnn3ccccc23)n1)c1cccc(-c2nnn3ccccc23)n1 as the compound, how does the pIC50 (Leishmania amazonensis [1]) read?
**A.** 4.05

**Q.** What about the pIC50 (Leishmania braziliensis) of the same compound?
**A.** 4.57

**Q.** And the Activity (Leishmania infantum [10])?
**A.** 99.3%

**Q.** And the “Ratio CC50/IC50” value [2]?
**A.** >6.3

**Q.** What about the “Ratio CC50/IC50” value [3] of the same compound?
**A.** >2.6

**Q.** What about the Activity (Mus musculus [20]) of the same compound?
**A.** Non-toxic

**Q.** And the “Ratio CC50/IC50” value [4]?
**A.** >3.3

**Q.** What about the Activity (Calf thymus DNA [11]) of the same compound?
**A.** 60%

**Q.** What about the Activity (Bos taurus) of the same compound?
**A.** inactive

**Q.** And the “Ratio CC50/IC50” value [5]?
**A.** >10.2

**Q.** And the Activity (Leishmania infantum [12]; route intraperitoneal)?
**A.** 92.8%

**Q.** And the Kb (Albumin [13])?
**A.** 2.5 ×10⁴ /M

**Q.** And the Kq (Albumin [13])?
**A.** 2.6 ×10¹³ /M/sec

**Q.** What about the pIC50 (Leishmania infantum [14]) of the same compound?
**A.** 4.71

**Q.** What about the Kb (Albumin [15]) of the same compound?
**A.** 9.3 ×10³ /M

**Q.** And the “Ratio CC50/IC50” value [6]?
**A.** >11.2

**Q.** And the pIC50 (Leishmania infantum [7])?
**A.** 4.33

**Q.** What about the Activity (Mus musculus [21]) of the same compound?
**A.** Non-toxic

**Q.** What about the CC50 at 24 h [8] of the same compound?
**A.** ≥ 300 µM

**Q.** What about the “Ratio CC50/IC50” value [9] of the same compound?
**A.** >15.3

**Q.** What about the KSV (Albumin [16]) of the same compound?
**A.** 2.6 ×10⁵ /M

**Q.** And the Kb (Calf thymus DNA [17])?
**A.** 1.14 ×10⁵ /M

**Q.** What about the Kb (Albumin [18]) of the same compound?
**A.** 5.3 ×10³ /M

**Q.** What about the pIC50 (Leishmania amazonensis [19]; Leishmania amazonensis, MHOM/Br/79/Maria, J774, read-out: IC50) of the same compound?
**A.** 3.94

**Q.** And the pIC50 (Leishmania guyanensis)?
**A.** 4.53

**Q.** For O=C(c1ccccn1)c1cccc(-c2nnn3ccccc23)n1, which Activity (Calf thymus DNA [22]) is on record?
**A.** inactive

**Q.** And the pIC50 (Leishmania amazonensis [1])?
**A.** 3.97

**Q.** What about the pIC50 (Leishmania braziliensis) of the same compound?
**A.** 3.72

**Q.** And the “Ratio CC50/IC50” value [2]?
**A.** >1.3

**Q.** And the “Ratio CC50/IC50” value [4]?
**A.** >2.8

**Q.** And the “Ratio CC50/IC50” value [5]?
**A.** >2.8

**Q.** And the “Ratio CC50/IC50” value [6]?
**A.** >1.6

**Q.** And the pIC50 (Leishmania infantum [7])?
**A.** 3.64

**Q.** And the CC50 at 24 h [8]?
**A.** ≥ 300 µM

**Q.** And the pIC50 (Leishmania guyanensis)?
**A.** 3.96

**Q.** What does the source list for O=C(c1cccc2c(-c3ccccc3)nnn12)c1cccc2c(-c3ccccc3)nnn12?
**A.** IC50 (Leishmania amazonensis [1]): Not Active; pIC50 (Leishmania braziliensis): 4.25; Ratio CC50/IC50 [5]: >4.5; Ratio CC50/IC50 [6]: >2.5; IC50 (Leishmania infantum [7]): Not Active; CC50 at 24 h [8]: ≥ 300 µM; pIC50 (Leishmania guyanensis): 4.27

**Q.** Which results are given for O=C(c1ccccn1)c1cccc2c(-c3ccccc3)nnn12?
**A.** pIC50 (Leishmania amazonensis [1]): 3.98; pIC50 (Leishmania braziliensis): 3.77; Ratio CC50/IC50 [2]: >1.9; Ratio CC50/IC50 [4]: >2.8; Ratio CC50/IC50 [5]: >2.4; Ratio CC50/IC50 [6]: >1.8; pIC50 (Leishmania infantum [7]): 3.76; CC50 at 24 h [8]: ≥ 300 µM; pIC50 (Leishmania guyanensis): 3.90
